Measurements: ChEMBL document CHEMBL1201862, “PubChem BioAssay data set” (2004)
The source made the active and inactive calls.

Assays:
[1] = system: INS1; experiment: beta-cell survival under cytokine stress – INS-1E, ATP luminescence, dry powder, dose response (AID 488844); assay type: functional, cell-based; settings: Rattus norvegicus
[2] = target: Lysine-specific demethylase 4C (Homo sapiens, UniProt Q9H3R0); experiment: inhibition of JMJD2C H3K9me3 demethylation – biochemical, DELFIA europium, cherry-picked samples, dose response (AID 488835); assay type: functional
Lysine-specific demethylase 4C, sequence (Q9H3R0 whole entry): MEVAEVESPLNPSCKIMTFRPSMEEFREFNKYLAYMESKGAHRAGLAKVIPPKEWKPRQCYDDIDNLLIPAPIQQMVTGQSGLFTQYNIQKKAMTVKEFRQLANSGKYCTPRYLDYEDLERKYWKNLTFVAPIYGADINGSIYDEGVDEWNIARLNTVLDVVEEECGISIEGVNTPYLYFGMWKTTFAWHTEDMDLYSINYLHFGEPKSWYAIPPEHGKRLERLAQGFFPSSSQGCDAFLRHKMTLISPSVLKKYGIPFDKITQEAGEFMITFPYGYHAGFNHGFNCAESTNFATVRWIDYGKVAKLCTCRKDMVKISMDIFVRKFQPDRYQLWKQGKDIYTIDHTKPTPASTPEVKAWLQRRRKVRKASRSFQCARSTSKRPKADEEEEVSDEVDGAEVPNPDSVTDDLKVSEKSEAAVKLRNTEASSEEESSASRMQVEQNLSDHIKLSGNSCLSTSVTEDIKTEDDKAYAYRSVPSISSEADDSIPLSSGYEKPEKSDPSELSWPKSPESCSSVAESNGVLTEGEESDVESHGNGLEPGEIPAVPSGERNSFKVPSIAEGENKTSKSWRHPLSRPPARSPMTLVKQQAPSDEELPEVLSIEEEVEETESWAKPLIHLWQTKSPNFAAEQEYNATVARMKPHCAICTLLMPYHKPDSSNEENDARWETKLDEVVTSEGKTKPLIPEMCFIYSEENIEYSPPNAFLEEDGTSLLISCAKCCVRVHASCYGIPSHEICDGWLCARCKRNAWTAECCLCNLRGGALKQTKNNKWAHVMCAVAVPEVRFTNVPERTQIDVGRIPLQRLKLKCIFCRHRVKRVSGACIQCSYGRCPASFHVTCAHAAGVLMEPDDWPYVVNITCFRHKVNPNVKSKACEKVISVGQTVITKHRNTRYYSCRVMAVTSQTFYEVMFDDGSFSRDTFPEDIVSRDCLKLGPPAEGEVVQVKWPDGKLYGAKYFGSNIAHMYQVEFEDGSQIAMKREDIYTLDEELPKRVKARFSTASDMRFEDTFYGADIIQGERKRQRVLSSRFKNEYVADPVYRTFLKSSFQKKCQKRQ

[3] = target: T1, Dual specificity protein phosphatase 3 (Homo sapiens, UniProt P51452); experiment: VHR1 phosphatase inhibitors, primary screen, biochemical, absorbance, uHTS (AID 1654)
T1 sequence (P51452 whole entry): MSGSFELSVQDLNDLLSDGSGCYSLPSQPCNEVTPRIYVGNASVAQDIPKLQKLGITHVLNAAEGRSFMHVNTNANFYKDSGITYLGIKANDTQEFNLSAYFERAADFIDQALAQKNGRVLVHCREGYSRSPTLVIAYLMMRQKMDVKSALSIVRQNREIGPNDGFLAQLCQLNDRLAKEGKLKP

[4] = target: T2, Small ubiquitin-related modifier 1 (Homo sapiens, UniProt P63165); experiment: SUMO1 protein interaction blockers, potency – biochemical, fluorescence polarization, uHTS hits, dose response (AID 624382); assay type: functional; settings: read-out: IC50_Mean
T2 sequence (P63165 whole entry): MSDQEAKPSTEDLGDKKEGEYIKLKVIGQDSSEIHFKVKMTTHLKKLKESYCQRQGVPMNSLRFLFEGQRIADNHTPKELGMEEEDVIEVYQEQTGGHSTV

[5] = target: Intestinal-type alkaline phosphatase (Mus musculus, UniProt P24822); experiment: PubChem AID 488785; assay type: functional
[6] = target: DNA (cytosine-5)-methyltransferase 1 (Homo sapiens, UniProt P26358); experiment: inhibition of DNA methylation by DNMT1 – biochemical, fluorescent molecular beacon, confirmation (AID 602386); assay type: functional
DNA (cytosine-5)-methyltransferase 1, sequence (P26358 whole entry): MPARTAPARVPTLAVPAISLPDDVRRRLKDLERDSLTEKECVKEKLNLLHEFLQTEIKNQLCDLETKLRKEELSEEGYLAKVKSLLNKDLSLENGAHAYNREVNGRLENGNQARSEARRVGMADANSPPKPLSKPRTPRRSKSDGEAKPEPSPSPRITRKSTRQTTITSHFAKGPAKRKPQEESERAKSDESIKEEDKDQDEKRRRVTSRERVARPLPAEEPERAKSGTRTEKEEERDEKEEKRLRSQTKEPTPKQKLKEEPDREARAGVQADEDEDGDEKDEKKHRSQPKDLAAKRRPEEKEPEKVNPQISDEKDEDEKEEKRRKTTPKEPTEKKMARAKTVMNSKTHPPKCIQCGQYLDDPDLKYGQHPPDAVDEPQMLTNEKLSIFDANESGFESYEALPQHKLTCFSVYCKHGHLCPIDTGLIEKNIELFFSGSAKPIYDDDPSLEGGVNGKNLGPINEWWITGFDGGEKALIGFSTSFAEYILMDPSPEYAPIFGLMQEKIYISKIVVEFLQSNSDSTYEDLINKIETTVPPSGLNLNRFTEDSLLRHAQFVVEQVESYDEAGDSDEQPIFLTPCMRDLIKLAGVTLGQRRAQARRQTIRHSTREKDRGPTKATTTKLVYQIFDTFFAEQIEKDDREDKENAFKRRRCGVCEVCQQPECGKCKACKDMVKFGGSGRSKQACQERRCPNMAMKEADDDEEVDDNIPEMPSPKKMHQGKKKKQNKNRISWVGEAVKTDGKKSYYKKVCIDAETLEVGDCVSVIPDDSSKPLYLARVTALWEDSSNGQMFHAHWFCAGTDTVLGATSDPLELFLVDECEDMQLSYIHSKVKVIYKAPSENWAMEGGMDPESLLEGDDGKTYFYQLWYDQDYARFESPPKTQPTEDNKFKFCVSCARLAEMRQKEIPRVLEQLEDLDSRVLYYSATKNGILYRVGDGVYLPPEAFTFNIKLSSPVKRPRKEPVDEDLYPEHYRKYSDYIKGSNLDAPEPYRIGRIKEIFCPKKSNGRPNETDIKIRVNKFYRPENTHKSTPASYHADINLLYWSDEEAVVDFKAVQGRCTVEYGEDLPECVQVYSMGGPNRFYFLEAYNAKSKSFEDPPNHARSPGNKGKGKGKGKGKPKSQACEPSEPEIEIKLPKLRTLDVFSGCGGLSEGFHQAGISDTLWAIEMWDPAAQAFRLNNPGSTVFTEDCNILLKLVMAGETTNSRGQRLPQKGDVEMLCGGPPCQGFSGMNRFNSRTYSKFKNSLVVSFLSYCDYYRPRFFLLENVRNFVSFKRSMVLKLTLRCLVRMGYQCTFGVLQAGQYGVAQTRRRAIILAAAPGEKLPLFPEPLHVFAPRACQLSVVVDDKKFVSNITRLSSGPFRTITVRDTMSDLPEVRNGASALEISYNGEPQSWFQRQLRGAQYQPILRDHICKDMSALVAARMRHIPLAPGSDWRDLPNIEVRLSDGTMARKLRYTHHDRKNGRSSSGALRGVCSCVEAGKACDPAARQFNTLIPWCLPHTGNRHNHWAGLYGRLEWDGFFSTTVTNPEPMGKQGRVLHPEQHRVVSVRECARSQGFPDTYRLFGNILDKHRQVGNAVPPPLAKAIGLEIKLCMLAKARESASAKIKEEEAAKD

[7] = target: T3, Dual specificity protein phosphatase 6 (Rattus norvegicus, UniProt Q64346); experiment: inhibition of rat DUSP6 enzyme activity – biochemical, in vitro, primary screen (AID 425)
T3 sequence (Q64346 whole entry): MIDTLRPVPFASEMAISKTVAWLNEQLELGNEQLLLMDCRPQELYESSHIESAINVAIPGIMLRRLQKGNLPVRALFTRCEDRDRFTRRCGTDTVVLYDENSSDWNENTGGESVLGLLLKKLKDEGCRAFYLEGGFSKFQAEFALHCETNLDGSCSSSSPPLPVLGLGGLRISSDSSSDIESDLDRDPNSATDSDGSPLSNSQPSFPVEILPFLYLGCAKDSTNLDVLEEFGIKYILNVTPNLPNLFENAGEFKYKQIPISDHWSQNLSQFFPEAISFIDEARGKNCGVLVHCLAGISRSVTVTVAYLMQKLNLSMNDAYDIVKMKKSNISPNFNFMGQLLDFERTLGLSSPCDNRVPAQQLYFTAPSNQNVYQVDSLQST

[8] = viability loss in THP-1 monocytes – THP-1 cells, cytotoxicity control for Vif-APOBEC3G degradation inhibitor project, dose response (AID 1117359); assay type: functional; settings: THP-1
[9] = target: Intestinal-type alkaline phosphatase (Homo sapiens, UniProt P09923); experiment: inhibition of human intestinal alkaline phosphatase – biochemical, dose response (AID 488876); assay type: functional
Intestinal-type alkaline phosphatase (Homo sapiens, UniProt P09923), sequence (P09923 whole entry): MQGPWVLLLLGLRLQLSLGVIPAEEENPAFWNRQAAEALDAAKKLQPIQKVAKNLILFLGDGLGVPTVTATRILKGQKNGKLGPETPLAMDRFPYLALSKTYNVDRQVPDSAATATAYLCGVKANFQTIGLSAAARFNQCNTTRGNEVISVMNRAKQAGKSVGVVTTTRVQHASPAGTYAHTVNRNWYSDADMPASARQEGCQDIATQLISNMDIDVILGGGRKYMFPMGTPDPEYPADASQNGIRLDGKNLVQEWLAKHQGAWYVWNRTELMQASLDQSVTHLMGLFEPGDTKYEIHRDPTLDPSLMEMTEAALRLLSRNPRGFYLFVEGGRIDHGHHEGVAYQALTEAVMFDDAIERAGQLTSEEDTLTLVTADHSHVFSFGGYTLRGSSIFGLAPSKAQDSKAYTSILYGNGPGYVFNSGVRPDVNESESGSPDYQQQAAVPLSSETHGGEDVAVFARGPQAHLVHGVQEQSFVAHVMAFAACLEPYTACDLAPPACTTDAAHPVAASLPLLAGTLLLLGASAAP

[10] = target: T4, Small ubiquitin-related modifier 2 (Homo sapiens, UniProt P61956); experiment: disruption of SUMO2 interaction with SIM peptide – biochemical, fluorescence polarization, uHTS hits, selectivity assay for SUMO1 interaction inhibitor project, dose response (AID 624385); assay type: functional; settings: read-out: IC50_Mean
T4 sequence (P61956 whole entry): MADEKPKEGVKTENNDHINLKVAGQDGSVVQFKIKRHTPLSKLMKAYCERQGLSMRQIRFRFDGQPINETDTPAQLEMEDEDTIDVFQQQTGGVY

[11] = target: T4, Small ubiquitin-related modifier 2; experiment: SUMO2 binding disruption by SUMO1 hits – biochemical, FRET, human SUMO2, uHTS hits, selectivity assay for SUMO1 interaction inhibitor project, dose response (AID 624384); assay type: functional; settings: read-out: IC50_Mean
[12] = target: T1, Dual specificity protein phosphatase 3; experiment: VHR1 phosphatase inhibitors, biochemical (AID 1878)
[13] = target: Albumin (Bos taurus, UniProt P02769); experiment: Counterscreen for inhibitors of T-cell receptor (TCR)-CD3 interaction: Fluorescence-based biochemical high throughput dose response assay to identify inhibitors of T-cell receptor (TCR)-CD3 interaction using a TAMRA-labeled BSA probe.; assay type: functional
Albumin, sequence (P02769 whole entry): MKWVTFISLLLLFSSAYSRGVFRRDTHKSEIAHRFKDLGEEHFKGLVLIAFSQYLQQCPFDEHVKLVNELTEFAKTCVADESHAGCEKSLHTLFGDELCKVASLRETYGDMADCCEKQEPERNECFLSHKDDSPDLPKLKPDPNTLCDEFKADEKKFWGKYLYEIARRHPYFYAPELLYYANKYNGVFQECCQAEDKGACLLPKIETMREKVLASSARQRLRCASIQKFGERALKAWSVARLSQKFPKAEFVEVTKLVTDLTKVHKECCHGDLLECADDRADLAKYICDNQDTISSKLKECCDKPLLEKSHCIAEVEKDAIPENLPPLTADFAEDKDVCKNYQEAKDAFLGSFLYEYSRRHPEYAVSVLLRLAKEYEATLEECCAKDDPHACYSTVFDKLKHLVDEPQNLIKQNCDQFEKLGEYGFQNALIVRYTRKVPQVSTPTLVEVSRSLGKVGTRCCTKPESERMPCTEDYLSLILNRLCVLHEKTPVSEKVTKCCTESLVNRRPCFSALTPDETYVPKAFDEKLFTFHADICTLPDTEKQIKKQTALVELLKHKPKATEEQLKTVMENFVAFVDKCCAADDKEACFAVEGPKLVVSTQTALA

[14] = target: T5, Caspase-6 (Homo sapiens, UniProt P55212); experiment: inhibition of CASP6 peptide cleavage – biochemical, VEID-R110 fluorescence, cherry-pick, dose response (AID 720632)
T5 sequence (P55212 whole entry): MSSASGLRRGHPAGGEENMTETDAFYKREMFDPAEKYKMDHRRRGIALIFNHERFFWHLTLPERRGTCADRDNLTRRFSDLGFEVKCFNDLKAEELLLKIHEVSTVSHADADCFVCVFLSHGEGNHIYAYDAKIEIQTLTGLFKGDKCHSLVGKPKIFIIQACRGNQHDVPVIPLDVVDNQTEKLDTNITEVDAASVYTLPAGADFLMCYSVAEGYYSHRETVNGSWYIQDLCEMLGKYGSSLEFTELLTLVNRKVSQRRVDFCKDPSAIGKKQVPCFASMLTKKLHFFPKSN

[15] = target: T6, Alkaline phosphatase, tissue-nonspecific isozyme (Homo sapiens, UniProt P05186); experiment: TNAP enzyme inhibition by screening hits, dose response, selectivity assay for mouse IAP inhibitor project, biochemical, human TNAP, uHTS hits (AID 488906); assay type: functional
T6 sequence (P05186 whole entry): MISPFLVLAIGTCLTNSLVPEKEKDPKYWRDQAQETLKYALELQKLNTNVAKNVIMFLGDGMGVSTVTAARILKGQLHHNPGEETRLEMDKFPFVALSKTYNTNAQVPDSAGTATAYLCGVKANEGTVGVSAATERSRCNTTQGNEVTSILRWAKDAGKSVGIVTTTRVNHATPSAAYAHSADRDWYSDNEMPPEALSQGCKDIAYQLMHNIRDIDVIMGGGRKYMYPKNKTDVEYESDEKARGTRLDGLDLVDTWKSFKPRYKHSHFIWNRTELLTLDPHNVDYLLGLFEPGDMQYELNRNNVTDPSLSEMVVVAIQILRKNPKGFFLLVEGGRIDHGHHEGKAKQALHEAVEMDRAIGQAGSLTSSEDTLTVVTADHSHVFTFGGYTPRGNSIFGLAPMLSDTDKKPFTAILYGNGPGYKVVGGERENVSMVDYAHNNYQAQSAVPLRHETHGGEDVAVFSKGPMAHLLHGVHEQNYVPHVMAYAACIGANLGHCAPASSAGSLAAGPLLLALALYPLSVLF

[16] = target: T2, Small ubiquitin-related modifier 1; experiment: SUMO1 protein-protein binding blockers, potency – biochemical, FRET, dose response (AID 624383); assay type: functional; settings: read-out: IC50_Mean
[17] = target: 5-hydroxytryptamine receptor 5A (Homo sapiens, UniProt P47898); experiment: Counterscreen for agonists of OPRM1-OPRD1 heterodimerization: luminescence-based cell-based high throughput dose response assay to identify agonists of 5-hydroxytryptamine (serotonin) 5A receptor (HTR5A). [Related pubchem assays (depositor defined):AID504326, AID504355, AID504692, AID504904, AID504905]; assay type: functional
5-hydroxytryptamine receptor 5A, sequence (P47898 whole entry): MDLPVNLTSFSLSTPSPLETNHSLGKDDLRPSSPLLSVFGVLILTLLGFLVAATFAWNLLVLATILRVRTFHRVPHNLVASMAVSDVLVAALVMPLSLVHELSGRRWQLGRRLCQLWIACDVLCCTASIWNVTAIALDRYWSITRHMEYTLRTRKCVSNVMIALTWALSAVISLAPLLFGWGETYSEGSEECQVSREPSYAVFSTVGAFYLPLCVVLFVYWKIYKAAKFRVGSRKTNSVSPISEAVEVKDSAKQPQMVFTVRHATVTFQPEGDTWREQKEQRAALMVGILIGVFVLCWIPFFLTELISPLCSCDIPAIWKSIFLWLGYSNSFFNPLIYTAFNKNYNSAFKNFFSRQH

[18] = target: Mu-type opioid receptor (Homo sapiens, UniProt P35372); experiment: (§1) Counterscreen for agonists of heterodimerization of the mu 1 (OPRM1) and delta 1 (OPRD1) opioid receptors: Luminescence-based cell-based high throughput dose response assay to identify agonists of OPRM1 homodimerization.; assay type: functional
[19] = target: Delta-type opioid receptor (Homo sapiens, UniProt P41143); experiment: as §1, with “of OPRD1” for “of OPRM1”, “homodimerization. [Related pubchem assays (depositor defined):AID504326, AID504355, AID504692, AID504904, AID504905]” for “homodimerization.”; assay type: functional
Delta-type opioid receptor, sequence (P41143 whole entry): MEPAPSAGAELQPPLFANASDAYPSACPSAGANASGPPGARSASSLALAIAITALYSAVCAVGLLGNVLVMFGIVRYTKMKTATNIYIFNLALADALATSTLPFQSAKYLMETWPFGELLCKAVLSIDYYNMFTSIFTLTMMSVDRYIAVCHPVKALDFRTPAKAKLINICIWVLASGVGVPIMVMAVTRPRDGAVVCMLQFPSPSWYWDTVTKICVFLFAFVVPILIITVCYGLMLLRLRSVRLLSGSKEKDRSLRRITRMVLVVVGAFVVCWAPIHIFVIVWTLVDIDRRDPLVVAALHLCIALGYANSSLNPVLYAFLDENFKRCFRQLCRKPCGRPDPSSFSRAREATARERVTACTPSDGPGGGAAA

COc1ccc(S(=O)(=O)N(C)C[C@H]2Oc3c(NC(=O)Nc4cccc5ccccc45)cccc3C(=O)N([C@H](C)CO)C[C@H]2C)cc1
AC50 [1]: 41.5 µM (active)

CCOc1ccc(N2C(=O)CC(N(O)c3ccccc3)C2=O)cc1 (centres undefined)
AC50 [2]: 12.7 µM (active)

O=C(N/N=C/c1cn(Cc2cccc(F)c2)c2ccccc12)c1cc(O)cc(O)c1
IC50 [3]: 4.76 µM (active) | IC50 [4]: 10.3 µM (active) | IC50 [5]: 2.7 µM (active) | IC50 [6]: 2.39 µM (active) | IC50 [7]: 74.4 µM (active) | CC50 [8]: > 40 µM (active) | IC50 [9]: > 100 µM (inactive) | IC50 [10]: 50.6 µM (inactive) | IC50 [11]: 2.49 µM (active) | IC50 [12]: 2.08 µM (active) | IC50 [13]: > 94.1 µM (inactive) | AC50 [14]: 0.461 µM (active) | IC50 [15]: > 100 µM (inactive) | IC50 [16]: 6.82 µM (active)

CC(=O)Nc1ccc(S(=O)(=O)/N=C2\C(=O)c3ccccc3C(O)=C2N2CCN(Cc3ccccc3)CC2)cc1
EC50 [17]: > 92.5 µM (inactive) | EC50 [18]: > 92.5 µM (inactive) | EC50 [19]: > 92.5 µM (inactive)
